Source: PubChem BioAssay (NCI)
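Step 1: Grow cells in 96-well plates. Step 2: Expose to compound for 48 hours at 5 concentrations. Step 3: Interpolate endpoints linearly; if unreached, use highest concentration. GI50: concentration for 50% inhibition of growth. At the TGI there is no net growth.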

Columns and labels:
Assay in all cases: growth of human tumour cells (NCI), 48 h
SK-MEL-2 melanoma = tested on: SK-MEL-2 melanoma
M14 melanoma = tested on: M14 melanoma
A549 NSCLC = tested on: A549 NSCLC
UO-31 renal = tested on: UO-31 renal
NCI-H522 lung = tested on: NCI-H522 lung
CCRF-CEM leukemia = tested on: CCRF-CEM leukemia
NCI-H226 lung = tested on: NCI-H226 lung
SK-MEL-5 melanoma = tested on: SK-MEL-5 melanoma
SNB-75 CNS = tested on: SNB-75 CNS
HOP-92 NSCLC = tested on: HOP-92 NSCLC
SN12C renal = tested on: SN12C renal
OVCAR-8 ovarian = tested on: OVCAR-8 ovarian
KM12 colon = tested on: KM12 colon
OVCAR-5 ovarian = tested on: OVCAR-5 ovarian
EKVX NSCLC = tested on: EKVX NSCLC
MCF7 breast = tested on: MCF7 breast
SK-MEL-28 melanoma = tested on: SK-MEL-28 melanoma
HCC-2998 colon = tested on: HCC-2998 colon
HOP-62 NSCLC = tested on: HOP-62 NSCLC
UACC-257 melanoma = tested on: UACC-257 melanoma
HT29 colon = tested on: HT29 colon
COLO 205 colon = tested on: COLO 205 colon
RPMI-8226 leukemia = tested on: RPMI-8226 leukemia
SNB-19 CNS = tested on: SNB-19 CNS
SF-268 CNS = tested on: SF-268 CNS
SK-OV-3 ovarian = tested on: SK-OV-3 ovarian
LOX IMVI melanoma = tested on: LOX IMVI melanoma
SR leukemia = tested on: SR leukemia
OVCAR-3 ovarian = tested on: OVCAR-3 ovarian
OVCAR-4 ovarian = tested on: OVCAR-4 ovarian
SF-295 CNS = tested on: SF-295 CNS
MDA-MB-231 breast = tested on: MDA-MB-231 breast
MALME-3M melanoma = tested on: MALME-3M melanoma
PC-3 prostate = tested on: PC-3 prostate
U251 CNS = tested on: U251 CNS
HS 578T breast = tested on: HS 578T breast
TK-10 renal = tested on: TK-10 renal
UACC-62 melanoma = tested on: UACC-62 melanoma
SW-620 colon = tested on: SW-620 colon
MOLT-4 leukemia = tested on: MOLT-4 leukemia
IGROV1 ovarian = tested on: IGROV1 ovarian
NCI-H23 lung = tested on: NCI-H23 lung
ACHN renal = tested on: ACHN renal
NCI-H460 lung = tested on: NCI-H460 lung
DU-145 prostate = tested on: DU-145 prostate
NCI/ADR-RES ovarian = tested on: NCI/ADR-RES ovarian
CAKI-1 renal = tested on: CAKI-1 renal
K-562 leukemia = tested on: K-562 leukemia
MDA-MB-435 = tested on: MDA-MB-435
786-0 renal = tested on: 786-0 renal
RXF 393 renal = tested on: RXF 393 renal
T-47D breast = tested on: T-47D breast
HL-60(TB) leukemia = tested on: HL-60(TB) leukemia
SF-539 CNS = tested on: SF-539 CNS
BT-549 breast = tested on: BT-549 breast
HCT-15 colon = tested on: HCT-15 colon

## O=c1[nH]c2c3ccncc3cc(-c3cccc(Cl)c3)c2c2cnccc12
SK-MEL-2 melanoma
  GI50: 47.9 µM
  TGI: > 100 µM
M14 melanoma
  GI50: > 100 µM
  TGI: > 100 µM
A549 NSCLC
  GI50: > 100 µM
  TGI: > 100 µM
UO-31 renal
  GI50: > 100 µM
  TGI: > 100 µM
NCI-H522 lung
  GI50: 30.4 µM
  TGI: > 100 µM
CCRF-CEM leukemia
  GI50: > 100 µM
  TGI: > 100 µM
NCI-H226 lung
  GI50: 73.8 µM
  TGI: > 100 µM
SK-MEL-5 melanoma
  GI50: > 100 µM
  TGI: > 100 µM
SNB-75 CNS
  GI50: 17.7 µM
  TGI: 89.7 µM
HOP-92 NSCLC
  GI50: 69.5 µM
  TGI: > 100 µM
SN12C renal
  GI50: 84.2 µM
  TGI: > 100 µM
OVCAR-8 ovarian
  GI50: 11.7 µM
  TGI: > 100 µM
KM12 colon
  GI50: > 100 µM
  TGI: > 100 µM
OVCAR-5 ovarian
  GI50: > 100 µM
  TGI: > 100 µM
EKVX NSCLC
  GI50: > 100 µM
  TGI: > 100 µM
MCF7 breast
  GI50: > 100 µM
  TGI: > 100 µM
SK-MEL-28 melanoma
  GI50: > 100 µM
  TGI: > 100 µM
HCC-2998 colon
  GI50: > 100 µM
  TGI: > 100 µM
HOP-62 NSCLC
  GI50: 27.9 µM
  TGI: 91.5 µM
UACC-257 melanoma
  GI50: > 100 µM
  TGI: > 100 µM
HT29 colon
  GI50: > 100 µM
  TGI: > 100 µM
COLO 205 colon
  GI50: > 100 µM
  TGI: > 100 µM
RPMI-8226 leukemia
  GI50: > 100 µM
  TGI: > 100 µM
SNB-19 CNS
  GI50: 25.6 µM
  TGI: > 100 µM
SF-268 CNS
  GI50: 20.8 µM
  TGI: > 100 µM
SK-OV-3 ovarian
  GI50: 24.7 µM
  TGI: > 100 µM
LOX IMVI melanoma
  GI50: 2.04 µM
  TGI: > 100 µM
SR leukemia
  GI50: 0.442 µM
  TGI: > 100 µM
OVCAR-3 ovarian
  GI50: 3.7 µM
  TGI: > 100 µM
OVCAR-4 ovarian
  GI50: > 100 µM
  TGI: > 100 µM
SF-295 CNS
  GI50: 34 µM
  TGI: > 100 µM
MDA-MB-231 breast
  GI50: 4.71 µM
  TGI: > 100 µM
MALME-3M melanoma
  GI50: > 100 µM
  TGI: > 100 µM
PC-3 prostate
  GI50: > 100 µM
  TGI: > 100 µM
U251 CNS
  GI50: 4.52 µM
  TGI: > 100 µM
HS 578T breast
  GI50: 28.8 µM
  TGI: > 100 µM
TK-10 renal
  GI50: 40.2 µM
  TGI: > 100 µM
UACC-62 melanoma
  GI50: 44.3 µM
  TGI: > 100 µM
SW-620 colon
  GI50: > 100 µM
  TGI: > 100 µM
MOLT-4 leukemia
  GI50: > 100 µM
  TGI: > 100 µM
IGROV1 ovarian
  GI50: 72.2 µM
  TGI: > 100 µM
NCI-H23 lung
  GI50: 12.9 µM
  TGI: > 100 µM
ACHN renal
  GI50: 1.91 µM
  TGI: > 100 µM
NCI-H460 lung
  GI50: > 100 µM
  TGI: > 100 µM
DU-145 prostate
  GI50: > 100 µM
  TGI: > 100 µM
NCI/ADR-RES ovarian
  GI50: 39.9 µM
  TGI: > 100 µM
CAKI-1 renal
  GI50: > 100 µM
  TGI: > 100 µM
K-562 leukemia
  GI50: > 100 µM
  TGI: > 100 µM
MDA-MB-435
  GI50: > 100 µM
  TGI: > 100 µM
786-0 renal
  GI50: 18.8 µM
  TGI: 79.5 µM
RXF 393 renal
  GI50: 0.737 µM
  TGI: 52.3 µM
T-47D breast
  GI50: > 100 µM
  TGI: > 100 µM
HL-60(TB) leukemia
  GI50: > 100 µM
  TGI: > 100 µM
SF-539 CNS
  GI50: 19.6 µM
  TGI: > 100 µM
BT-549 breast
  GI50: 7.94 µM
  TGI: > 100 µM
HCT-15 colon
  GI50: > 100 µM
  TGI: > 100 µM
